In ChEMBL document CHEMBL3593229, “Identification of a potent 5-phenyl-thiazol-2-ylamine-based inhibitor of FLT3 with activity against drug resistance-conferring point mutations” (Eur J Med Chem, 2015):
Activity calls are given as the source filed them. No cut-off for these calls is given here.

What was measured:
[1] = target: Receptor-type tyrosine-protein kinase FLT3 (Homo sapiens) (UniProt P36888); assay: Inhibition of human FLT3 at 0.1 uM relative to control
[2] = target: Platelet-derived growth factor receptor alpha (Homo sapiens) (UniProt P16234); assay: Inhibition of human PDGFRalpha at 0.1 uM relative to control
[3] = target: Proto-oncogene tyrosine-protein kinase Src (Homo sapiens) (UniProt P12931); assay: Inhibition of human SRC at 0.1 uM relative to control
[4] = target: Tyrosine-protein kinase Lyn (Homo sapiens) (UniProt P07948); assay: Inhibition of human LYNA at 0.1 uM relative to control
[5] = target: Proto-oncogene tyrosine-protein kinase receptor Ret (Homo sapiens) (UniProt P07949); assay: Inhibition of human RET at 0.1 uM relative to control
Proto-oncogene tyrosine-protein kinase receptor Ret (Homo sapiens), sequence (P07949 whole entry): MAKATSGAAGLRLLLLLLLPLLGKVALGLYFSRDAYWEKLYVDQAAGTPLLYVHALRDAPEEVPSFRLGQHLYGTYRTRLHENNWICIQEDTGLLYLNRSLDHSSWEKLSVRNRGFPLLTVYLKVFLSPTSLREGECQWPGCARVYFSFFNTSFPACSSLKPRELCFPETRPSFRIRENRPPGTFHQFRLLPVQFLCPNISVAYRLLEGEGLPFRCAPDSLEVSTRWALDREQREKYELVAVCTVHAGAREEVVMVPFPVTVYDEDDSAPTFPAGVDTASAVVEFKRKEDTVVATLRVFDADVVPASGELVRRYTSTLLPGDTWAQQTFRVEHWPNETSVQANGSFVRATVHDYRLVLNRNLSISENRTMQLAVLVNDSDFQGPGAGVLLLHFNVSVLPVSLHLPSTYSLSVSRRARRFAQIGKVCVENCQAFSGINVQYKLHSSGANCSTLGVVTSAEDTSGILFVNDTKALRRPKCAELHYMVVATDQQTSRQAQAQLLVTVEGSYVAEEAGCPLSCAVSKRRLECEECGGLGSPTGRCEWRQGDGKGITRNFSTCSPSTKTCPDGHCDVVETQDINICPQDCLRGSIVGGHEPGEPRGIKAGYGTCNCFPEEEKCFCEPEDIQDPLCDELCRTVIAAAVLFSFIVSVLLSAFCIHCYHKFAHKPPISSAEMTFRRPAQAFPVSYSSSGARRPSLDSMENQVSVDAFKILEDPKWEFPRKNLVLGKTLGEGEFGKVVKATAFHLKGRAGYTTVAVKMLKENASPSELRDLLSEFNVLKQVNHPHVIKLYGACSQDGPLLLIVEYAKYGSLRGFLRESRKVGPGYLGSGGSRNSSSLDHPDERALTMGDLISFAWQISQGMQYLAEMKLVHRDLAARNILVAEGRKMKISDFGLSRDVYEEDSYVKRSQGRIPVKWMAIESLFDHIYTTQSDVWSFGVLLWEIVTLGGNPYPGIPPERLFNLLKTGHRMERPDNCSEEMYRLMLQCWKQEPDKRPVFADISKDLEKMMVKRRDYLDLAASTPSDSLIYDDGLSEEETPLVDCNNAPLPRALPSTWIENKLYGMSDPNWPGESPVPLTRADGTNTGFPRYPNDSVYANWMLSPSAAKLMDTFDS

[6] = target: Tyrosine-protein kinase Lck (Homo sapiens) (UniProt P06239); assay: Inhibition of human LCK at 0.1 uM relative to control
[7] = target: Tyrosine-protein kinase Fgr (Homo sapiens) (UniProt P09769); assay: Inhibition of human FGR at 0.1 uM relative to control
Tyrosine-protein kinase Fgr (Homo sapiens), sequence (P09769 2-529 limits assumed): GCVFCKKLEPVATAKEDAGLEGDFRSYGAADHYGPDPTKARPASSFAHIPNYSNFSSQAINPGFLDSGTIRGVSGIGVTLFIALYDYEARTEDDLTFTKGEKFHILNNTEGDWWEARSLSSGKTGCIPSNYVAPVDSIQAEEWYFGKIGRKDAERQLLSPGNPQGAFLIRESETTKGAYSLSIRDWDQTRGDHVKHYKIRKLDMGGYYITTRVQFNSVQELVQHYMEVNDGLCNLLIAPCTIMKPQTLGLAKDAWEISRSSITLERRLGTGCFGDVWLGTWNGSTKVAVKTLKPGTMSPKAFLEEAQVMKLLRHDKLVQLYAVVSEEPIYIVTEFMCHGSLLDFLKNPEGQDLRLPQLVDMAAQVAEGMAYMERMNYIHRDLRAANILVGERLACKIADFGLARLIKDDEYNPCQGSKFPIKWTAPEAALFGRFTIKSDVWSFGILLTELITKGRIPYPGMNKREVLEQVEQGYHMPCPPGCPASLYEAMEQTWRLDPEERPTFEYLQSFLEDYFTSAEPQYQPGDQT

[8] = test system: Receptor-type tyrosine-protein kinase FLT3 (Homo sapiens), P36888 [D835Y]; assay: Inhibition of human FLT3 D835Y mutant at 0.1 uM relative to control
[9] = test system: Proto-oncogene tyrosine-protein kinase receptor Ret (Homo sapiens), P07949 [Y791F]; assay: Inhibition of human RET Y791F mutant at 0.1 uM relative to control
[10] = target: Tyrosine-protein kinase Yes (Homo sapiens) (UniProt P07947); assay: Inhibition of human YES1 at 0.1 uM relative to control
[11] = test system: Platelet-derived growth factor receptor alpha (Homo sapiens), P16234 [V561D]; assay: Inhibition of human PDGFRA V561D mutant at 0.1 uM relative to control
Platelet-derived growth factor receptor alpha (Homo sapiens), P16234 [V561D], sequence (P16234 whole entry V561D): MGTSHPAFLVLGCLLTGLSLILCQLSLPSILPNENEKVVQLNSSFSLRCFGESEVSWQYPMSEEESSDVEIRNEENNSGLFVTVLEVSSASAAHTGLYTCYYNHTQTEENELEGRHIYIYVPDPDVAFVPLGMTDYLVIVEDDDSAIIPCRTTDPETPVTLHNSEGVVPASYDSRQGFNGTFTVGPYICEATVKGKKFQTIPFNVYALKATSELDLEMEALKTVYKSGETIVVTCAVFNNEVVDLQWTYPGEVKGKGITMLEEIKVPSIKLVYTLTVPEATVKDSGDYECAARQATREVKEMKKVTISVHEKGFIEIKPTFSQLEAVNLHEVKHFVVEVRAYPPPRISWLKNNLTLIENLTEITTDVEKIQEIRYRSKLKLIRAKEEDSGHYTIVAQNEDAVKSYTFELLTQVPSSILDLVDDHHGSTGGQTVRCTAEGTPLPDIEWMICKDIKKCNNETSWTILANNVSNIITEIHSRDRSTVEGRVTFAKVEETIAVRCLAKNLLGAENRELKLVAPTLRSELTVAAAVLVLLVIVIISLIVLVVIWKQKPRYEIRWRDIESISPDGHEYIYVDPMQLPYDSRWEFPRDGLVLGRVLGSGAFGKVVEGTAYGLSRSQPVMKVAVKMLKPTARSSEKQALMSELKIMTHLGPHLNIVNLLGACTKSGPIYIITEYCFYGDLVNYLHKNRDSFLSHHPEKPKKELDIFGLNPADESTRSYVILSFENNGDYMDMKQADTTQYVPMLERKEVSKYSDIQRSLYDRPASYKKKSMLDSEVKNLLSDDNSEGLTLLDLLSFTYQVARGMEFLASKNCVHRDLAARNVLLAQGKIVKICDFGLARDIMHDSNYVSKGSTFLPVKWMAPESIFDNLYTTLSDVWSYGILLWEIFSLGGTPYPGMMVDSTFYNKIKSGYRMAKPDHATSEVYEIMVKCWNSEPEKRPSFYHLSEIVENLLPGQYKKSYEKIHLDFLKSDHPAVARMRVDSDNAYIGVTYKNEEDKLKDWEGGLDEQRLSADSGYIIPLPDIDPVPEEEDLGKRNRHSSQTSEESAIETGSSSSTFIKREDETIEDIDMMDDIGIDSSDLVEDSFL

[12] = test system: Tyrosine-protein kinase ABL1 (Homo sapiens), P00519 [T315I]; assay: Inhibition of human ABL1 T315I mutant at 0.1 uM relative to control
[13] = target: Tyrosine-protein kinase Fyn (Homo sapiens) (UniProt P06241); assay: Inhibition of human FYN at 0.1 uM relative to control
[14] = target: Tyrosine-protein kinase HCK (Homo sapiens) (UniProt P08631); assay: Inhibition of human HCK at 0.1 uM relative to control
[15] = target: Tyrosine-protein kinase receptor TYRO3 (Homo sapiens) (UniProt Q06418); assay: Inhibition of human TYRO3 at 0.1 uM relative to control
[16] = target: Serine/threonine-protein kinase Nek1 (Homo sapiens) (UniProt Q96PY6); assay: Inhibition of human NEK1 at 0.1 uM relative to control
[17] = target: Tyrosine-protein kinase CSK (Homo sapiens) (UniProt P41240); assay: Inhibition of human CSK at 0.1 uM relative to control
Tyrosine-protein kinase CSK (Homo sapiens), sequence (P41240 2-450 limits assumed): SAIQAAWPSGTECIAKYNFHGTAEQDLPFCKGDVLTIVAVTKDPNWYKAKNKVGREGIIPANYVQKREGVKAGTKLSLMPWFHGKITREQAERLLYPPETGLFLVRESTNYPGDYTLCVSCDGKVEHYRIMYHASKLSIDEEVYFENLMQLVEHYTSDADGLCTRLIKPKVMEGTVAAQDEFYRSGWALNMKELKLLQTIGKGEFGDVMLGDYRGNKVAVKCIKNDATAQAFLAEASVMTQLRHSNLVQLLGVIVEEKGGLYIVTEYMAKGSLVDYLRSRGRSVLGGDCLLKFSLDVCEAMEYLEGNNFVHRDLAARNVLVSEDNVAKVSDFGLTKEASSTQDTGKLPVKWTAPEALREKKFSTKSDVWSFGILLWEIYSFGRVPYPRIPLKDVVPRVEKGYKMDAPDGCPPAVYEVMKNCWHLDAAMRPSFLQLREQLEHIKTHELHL

[18] = target: Insulin-like growth factor 1 receptor (Homo sapiens) (UniProt P08069); assay: Inhibition of human IGF1R at 0.1 uM relative to control
[19] = target: AMP-activated protein kinase, AMPK (Homo sapiens) (UniProt P54646+O43741+P54619+Q9UGJ0+Q9Y478+Q13131+Q9UGI9); assay: Inhibition of human AMPK A1/B1/G1 at 0.1 uM relative to control; type: protein-complex assay
[20] = target: Hepatocyte growth factor receptor (Homo sapiens) (UniProt P08581); assay: Inhibition of human MET at 0.1 uM relative to control
[21] = target: Mitogen-activated protein kinase 14 (Homo sapiens) (UniProt Q16539); assay: Inhibition of human MAPK14 at 0.1 uM relative to control
Mitogen-activated protein kinase 14 (Homo sapiens), sequence (Q16539 whole entry): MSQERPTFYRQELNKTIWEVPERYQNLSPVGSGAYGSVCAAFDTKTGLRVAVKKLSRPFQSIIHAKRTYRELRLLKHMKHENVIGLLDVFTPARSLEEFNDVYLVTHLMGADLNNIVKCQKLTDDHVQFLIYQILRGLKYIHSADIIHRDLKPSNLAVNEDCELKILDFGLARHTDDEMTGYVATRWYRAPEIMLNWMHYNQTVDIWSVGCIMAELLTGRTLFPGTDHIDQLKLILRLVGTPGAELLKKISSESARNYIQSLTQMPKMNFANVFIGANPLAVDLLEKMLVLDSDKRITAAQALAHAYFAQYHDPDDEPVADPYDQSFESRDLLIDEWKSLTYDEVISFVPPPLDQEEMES

[22] = target: Ribosomal protein S6 kinase alpha-2 (Homo sapiens) (UniProt Q15349); assay: Inhibition of human RSK3 at 0.1 uM relative to control
Ribosomal protein S6 kinase alpha-2 (Homo sapiens), sequence (Q15349 whole entry): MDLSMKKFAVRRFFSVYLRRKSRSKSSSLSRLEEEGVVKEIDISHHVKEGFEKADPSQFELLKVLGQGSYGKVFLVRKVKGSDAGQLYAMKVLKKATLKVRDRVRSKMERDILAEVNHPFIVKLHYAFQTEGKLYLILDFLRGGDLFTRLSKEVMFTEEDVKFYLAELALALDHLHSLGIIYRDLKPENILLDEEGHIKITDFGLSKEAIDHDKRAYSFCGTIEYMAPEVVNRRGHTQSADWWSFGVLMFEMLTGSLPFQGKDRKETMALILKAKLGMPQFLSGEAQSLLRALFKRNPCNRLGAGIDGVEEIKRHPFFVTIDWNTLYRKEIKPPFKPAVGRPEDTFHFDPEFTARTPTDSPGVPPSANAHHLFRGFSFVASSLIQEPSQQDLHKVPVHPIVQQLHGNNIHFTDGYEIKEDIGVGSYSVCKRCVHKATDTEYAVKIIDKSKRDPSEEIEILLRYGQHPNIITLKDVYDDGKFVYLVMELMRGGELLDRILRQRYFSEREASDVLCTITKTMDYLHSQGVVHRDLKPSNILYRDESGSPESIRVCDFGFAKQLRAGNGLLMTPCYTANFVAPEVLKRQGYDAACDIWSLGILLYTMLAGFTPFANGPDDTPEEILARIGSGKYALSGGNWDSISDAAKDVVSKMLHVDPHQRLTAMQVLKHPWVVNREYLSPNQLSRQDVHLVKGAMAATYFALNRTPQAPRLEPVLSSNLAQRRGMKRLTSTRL

[23] = target: Serine/threonine-protein kinase Sgk2 (Homo sapiens) (UniProt Q9HBY8); assay: Inhibition of human SGK2 at 0.1 uM relative to control
[24] = target: CDK2/Cyclin A2 (Homo sapiens) (UniProt P24941+P20248); assay: Inhibition of human CDK2/cyclin A at 0.1 uM relative to control; type: protein-complex assay
[25] = target: Ribosomal protein S6 kinase alpha-5 (Homo sapiens) (UniProt O75582); assay: Inhibition of human MSK1 at 0.1 uM relative to control
Ribosomal protein S6 kinase alpha-5 (Homo sapiens), sequence (O75582 whole entry, looked up): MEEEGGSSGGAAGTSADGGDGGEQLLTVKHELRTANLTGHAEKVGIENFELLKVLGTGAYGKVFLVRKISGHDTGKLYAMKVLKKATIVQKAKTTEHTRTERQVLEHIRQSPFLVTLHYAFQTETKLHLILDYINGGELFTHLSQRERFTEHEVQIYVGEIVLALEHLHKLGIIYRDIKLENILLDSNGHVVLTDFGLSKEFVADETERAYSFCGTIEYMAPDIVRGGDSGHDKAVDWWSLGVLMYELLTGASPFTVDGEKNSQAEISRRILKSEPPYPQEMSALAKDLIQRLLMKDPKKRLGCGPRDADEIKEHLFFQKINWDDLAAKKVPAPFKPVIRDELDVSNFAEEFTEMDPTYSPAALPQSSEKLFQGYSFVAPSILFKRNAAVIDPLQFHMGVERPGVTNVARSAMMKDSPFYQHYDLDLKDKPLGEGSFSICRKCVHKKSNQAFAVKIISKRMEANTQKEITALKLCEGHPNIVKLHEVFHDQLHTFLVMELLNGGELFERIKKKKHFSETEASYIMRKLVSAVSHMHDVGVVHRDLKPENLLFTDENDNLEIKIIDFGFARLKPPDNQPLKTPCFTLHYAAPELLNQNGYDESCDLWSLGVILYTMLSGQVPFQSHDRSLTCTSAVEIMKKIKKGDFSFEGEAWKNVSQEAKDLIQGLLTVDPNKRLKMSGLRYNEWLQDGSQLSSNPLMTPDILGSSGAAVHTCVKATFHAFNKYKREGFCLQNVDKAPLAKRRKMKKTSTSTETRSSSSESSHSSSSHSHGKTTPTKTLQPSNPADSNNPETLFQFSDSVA

[26] = target: Ribosomal protein S6 kinase alpha-3 (Homo sapiens) (UniProt P51812); assay: Inhibition of human RSK2 at 0.1 uM relative to control
[27] = target: Serine/threonine-protein kinase Chk2 (Homo sapiens) (UniProt O96017); assay: Inhibition of human CHK2 at 0.1 uM relative to control
[28] = target: Macrophage-stimulating protein receptor (Homo sapiens) (UniProt Q04912); assay: Inhibition of human RON at 0.1 uM relative to control
[29] = target: Serine/threonine-protein kinase Nek2 (Homo sapiens) (UniProt P51955); assay: Inhibition of human NEK2 at 0.1 uM relative to control
[30] = target: Dual specificity protein kinase CLK2 (Homo sapiens) (UniProt P49760); assay: Inhibition of human CLK2 at 0.1 uM relative to control
[31] = target: Serine/threonine-protein kinase Sgk3 (Homo sapiens) (UniProt Q96BR1); assay: Inhibition of human SGKL at 0.1 uM relative to control
[32] = Volume of distribution at steady state in ICR mouse at 2 mg/kg, iv; type: ADME, organism-based; details: in vivo, read-out: Vdss
[33] = Half life in ICR mouse at 10 mg/kg, po; type: ADME, organism-based; details: in vivo
[34] = Cmax in Sprague-Dawley rat at 10 mg/kg, po; type: ADME, organism-based; set-up: dose 10 mg/kg, route oral; details: in vivo
[35] = Cmax in ICR mouse at 10 mg/kg, po; type: ADME, organism-based; set-up: dose 10 mg/kg, route oral; details: in vivo
[36] = test system: MV4-11; assay: Antitumor activity against human MV4-11 cells xenografted in nude mouse assessed as tumor growth inhibition at 10 mg/kg, po qd administered on day 1 to 5 measured during compound dosing; type: functional, organism-based
[37] = test system: Mus musculus; assay: Toxicity in nude mouse allografted with mouse 32D cells expressing FLT3 ITD D835Y mutant at 10 mg/kg/day, po administered 5 days on/2 days off schedule for 4 weeks measured daily during compound dosing; type: organism-based; details: in vivo
[38] = AUC (0 to infinity) in ICR mouse at 10 mg/kg, po; type: ADME, organism-based; set-up: dose 10 mg/kg, time infinity, route oral; details: in vivo
[39] = test system: Receptor-type tyrosine-protein kinase FLT3 (Homo sapiens), P36888 [UNDEFINED MUTATION]; details: MV4-11
Description: Inhibition of FLT3 ITD homozygous mutant in human MV4-11 cells assessed as cell growth inhibition after 72 hrs by MTS assay

[40] = target: Vascular endothelial growth factor receptor 2 (Homo sapiens, UniProt P35968); details: 0.1 uM
Description: Inhibition of human KDR at 0.1 uM relative to control

[41] = test system: Receptor-type tyrosine-protein kinase FLT3 (Homo sapiens), P36888 [D835F]
[42] = test system: Receptor-type tyrosine-protein kinase FLT3 (Homo sapiens), P36888 [F691L]

Compound `CCc1cc(NC(=O)Nc2ccc(-c3cnc(Nc4cc(N5CCN(CC)CC5)nc(C)n4)s3)cc2)no1` has an inhibition [1] of 98%, an inhibition [2] of 98% and an inhibition [3] of 93%. The inhibition [4] was 96%, the inhibition [5] was 95% and the inhibition [6] was 92%. For the same compound, the inhibition [7] was 89%, the inhibition [8] was 87% and the inhibition [9] was 86%. It also gave an inhibition [10] of 72%, an inhibition [11] of 63% and an inhibition [12] of 51%. It also gave an inhibition [13] of 46%, an inhibition [14] of 45% and an inhibition [15] of 28%. For the same compound, the inhibition [16] was 23%, the inhibition [17] was 23% and the inhibition [18] was 16%. For the same compound, the inhibition [19] was 16%, the inhibition [20] was 14% and the inhibition [21] was 10%. The inhibition [22] was 7%, the inhibition [23] was 6% and the inhibition [24] was 4%. For the same compound, the inhibition [25] was 0%, the inhibition [26] was -1% and the inhibition [27] was -3%. The inhibition [28] was -3%, the inhibition [29] was -4% and the inhibition [30] was -7%. It also gave an inhibition [31] of -8%, a Vd [32] of 21 L/kg and a half-life [33] of 1.8 h. The Cmax [34] was 122 ng/mL, the Cmax [35] was 168 ng/mL and the TGI [36] was “Active”. The Activity [37] was “Non-toxic”, the AUC(0-inf) [38] was 942 ng·h/mL and the GI50 [39] was 1 nM. The inhibition [40] was 85%, the GI50 [41] was 38 nM and the GI50 [42] was 70 nM.
